Consider 22 molecules from patent US20260055102A1 (Redx Pharma Limited, priority 2022, published 2026).

Assay [1] addresses Recombinant human DDR1 (aa440-876 containing a GST tag) (Homo sapiens (Human), UniProt Q08345). Nature of the assay: LanthaScreen Eu Kinase Binding Assay DDR1. As to conditions: Kinase Tracer 178 5 nM, at least two independent replicates; for IC50: read-out: DDR1 pIC50 (converted). In a few lines: (§1)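 DDR1 (2.5 nM) or DDR2 (1.75 nM) was preincubated with compound 30 min at RT in 50 mM HEPES pH 7.3, 10 mM MgCl2, 1 mM EGTA, 0.01% Tween. Eu-anti-GST and Tracer 178 were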
On the technique in general: In TR-FRET formats the signal depends on donor and acceptor labels being close together.

In assay [2] the target is Recombinant human DDR2 (aa427-855 containing a GST tag) (Homo sapiens (Human), UniProt Q16832). Nature of the assay: LanthaScreen Eu Kinase Binding Assay DDR2. As to conditions: Kinase Tracer 178 10 nM, at least two independent replicates; for IC50: read-out: DDR2 pIC50 (converted). The gist of the method:
as §1

Sequence of Recombinant human DDR1 (aa440-876 containing a GST tag) (Q08345 other isoform, or with tags, fused parts or gaps): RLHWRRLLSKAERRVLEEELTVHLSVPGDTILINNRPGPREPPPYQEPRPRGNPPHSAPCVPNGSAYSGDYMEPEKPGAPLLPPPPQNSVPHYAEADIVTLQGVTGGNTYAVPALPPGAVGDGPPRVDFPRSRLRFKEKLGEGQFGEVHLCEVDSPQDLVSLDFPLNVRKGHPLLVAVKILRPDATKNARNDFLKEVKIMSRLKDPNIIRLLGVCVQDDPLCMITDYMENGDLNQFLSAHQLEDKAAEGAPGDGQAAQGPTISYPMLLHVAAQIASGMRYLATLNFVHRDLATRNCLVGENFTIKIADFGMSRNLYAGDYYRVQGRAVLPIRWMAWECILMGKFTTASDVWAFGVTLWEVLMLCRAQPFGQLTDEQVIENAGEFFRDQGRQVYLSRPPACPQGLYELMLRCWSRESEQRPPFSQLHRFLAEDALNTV
Sequence of Recombinant human DDR2 (aa427-855 containing a GST tag) (Q16832 427-855): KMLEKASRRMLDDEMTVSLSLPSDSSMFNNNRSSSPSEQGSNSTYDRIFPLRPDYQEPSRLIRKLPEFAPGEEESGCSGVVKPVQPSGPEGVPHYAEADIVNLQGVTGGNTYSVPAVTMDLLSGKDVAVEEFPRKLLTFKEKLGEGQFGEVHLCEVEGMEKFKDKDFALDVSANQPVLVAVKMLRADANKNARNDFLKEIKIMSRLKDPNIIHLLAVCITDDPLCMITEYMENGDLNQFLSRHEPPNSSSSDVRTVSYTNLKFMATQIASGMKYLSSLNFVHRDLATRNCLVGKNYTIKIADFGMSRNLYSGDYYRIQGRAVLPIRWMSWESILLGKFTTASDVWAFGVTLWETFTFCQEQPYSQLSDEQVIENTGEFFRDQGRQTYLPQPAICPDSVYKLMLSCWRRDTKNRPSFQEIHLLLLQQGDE

`Cn1ncc2c(-c3ccc(-n4c(=O)n(CC(=O)NCC(F)(F)F)c5ccccc54)cn3)cncc21` [Example 91, 2-[3-[6-(1-methylpyrazolo[3,4-c]pyridin-4-yl)-3-pyridyl]-2-oxo-benzimidazol-1-yl]-N-(2,2,2-trifluoroethyl)acetamide]: in assay [1], the “DDR1 pIC50” value is listed as “C (7≥pIC50>6)”. In addition, the “DDR2 pIC50” value in assay [2] was “D (pIC50≤6)”.
Turning to `Cc1cc(-c2cncc3[nH]ncc23)ncc1-n1c(=O)n(CC(=O)NCC(F)(F)F)c2cccc(C)c21` [Example 93, 2-[4-methyl-3-[4-methyl-6-(1H-pyrazolo[3,4-c]pyridin-4-yl)-3-pyridyl]-2-oxo-benzimidazol-1-yl]-N-(2,2,2-trifluoroethyl)acetamide], the “DDR1 pIC50” value in assay [1] is “A (pIC50>8)”. In addition, the IC50 in assay [2] was 100 to 1000 nM.
Taken in the same sequence, the figures for `Cc1nc(-c2cncc3[nH]ncc23)ccc1-n1c(=O)n(CC(=O)NCC(F)(F)F)c2cccc(C)c21` [Example 94, 2-[4-methyl-3-[2-methyl-6-(1H-pyrazolo[3,4-c]pyridin-4-yl)-3-pyridyl]-2-oxo-benzimidazol-1-yl]-N-(2,2,2-trifluoroethyl)acetamide] were “A (pIC50>8)” and 10 to 100 nM.
For `Cc1nc(-c2cncc3c2cnn3C)ccc1-n1c(=O)n(CC(=O)NCC(F)(F)F)c2cccc(C)c21` [Example 95, 2-[4-methyl-3-[2-methyl-6-(1-methylpyrazolo[3,4-c]pyridin-4-yl)-3-pyridyl]-2-oxo-benzimidazol-1-yl]-N-(2,2,2-trifluoroethyl)acetamide], the “DDR1 pIC50” value in assay [1] is “A (pIC50>8)”. Besides, the IC50 in assay [2] was 100 to 1000 nM.
Taken in the same sequence, the figures for `Cc1nc(-c2cncc3c2cnn3C)cnc1-n1c(=O)n(CC(=O)NCC(F)(F)F)c2cccc(C)c21` [Example 96, 2-[4-methyl-3-[3-methyl-5-(1-methylpyrazolo[3,4-c]pyridin-4-yl)pyrazin-2-yl]-2-oxo-benzimidazol-1-yl]-N-(2,2,2-trifluoroethyl)acetamide] were “A (pIC50>8)” and 100 to 1000 nM.
For `Cc1cc(-n2c(=O)n(CC(=O)NCC(F)(F)F)c3cccc(C)c32)cnc1-c1cncc2c1cnn2C` [Example 97, 2-[4-methyl-3-[5-methyl-6-(1-methylpyrazolo[3,4-c]pyridin-4-yl)-3-pyridyl]-2-oxo-benzimidazol-1-yl]-N-(2,2,2-trifluoroethyl)acetamide], in assay [1], the “DDR1 pIC50” value was “D (pIC50≤6)”. For the same molecule, the “DDR2 pIC50” value in assay [2] is reported as “D (pIC50≤6)”.
As for `Cc1cccc2c1n(-c1ncc(-c3cncc4[nH]ncc34)cn1)c(=O)n2CC(=O)N[C@H](C)C(F)(F)F` [Example 98, 2-[4-methyl-2-oxo-3-[5-(1H-pyrazolo[3,4-c]pyridin-4-yl)pyrimidin-2-yl]benzimidazol-1-yl]-N-[(1R)-2,2,2-trifluoro-1-methyl-ethyl]acetamide], the IC50 in assay [1] is 100 to 1000 nM. Moreover, in assay [2], the “DDR2 pIC50” value is on record as “D (pIC50≤6)”.
Taken in the same sequence, the figures for `Cc1cc(-n2c(=O)n(CC(=O)NCC(F)(F)F)c3cccc(C)c32)cnc1-c1cncc2[nH]ncc12` [Example 99, 2-[4-methyl-3-[5-methyl-6-(1H-pyrazolo[3,4-c]pyridin-4-yl)-3-pyridyl]-2-oxo-benzimidazol-1-yl]-N-(2,2,2-trifluoroethyl)acetamide] were 100 to 1000 nM and “D (pIC50≤6)”.
Take `Cc1nc(-n2c(=O)n(CC(=O)N[C@@H](C)C(F)(F)F)c3cccc(C)c32)cnc1-c1cncc2c1cnn2C` [Example 101, 2-[4-methyl-3-[6-methyl-5-(1-methylpyrazolo[3,4-c]pyridin-4-yl)pyrazin-2-yl]-2-oxo-benzimidazol-1-yl]-N-[(1S)-2,2,2-trifluoro-1-methyl-ethyl]acetamide]: the IC50 in assay [1] is 100 to 1000 nM. Moreover, in assay [2], the “DDR2 pIC50” value is “D (pIC50≤6)”.
Taken in the same sequence, the figures for `Cc1cc(-n2c(=O)n(CC(=O)NCC(F)(F)F)c3cccc(C)c32)cnc1-c1cncc2[nH]nc(C)c12` [Example 102, 2-[4-methyl-3-[5-methyl-6-(3-methyl-1H-pyrazolo[3,4-c]pyridin-4-yl)-3-pyridyl]-2-oxo-benzimidazol-1-yl]-N-(2,2,2-trifluoroethyl)acetamide] were 100 to 1000 nM and “D (pIC50≤6)”.
Taken in the same sequence, the figures for `Cc1nc(-c2cncc3[nH]nc(C)c23)ccc1-n1c(=O)n(CC(=O)NCC(F)(F)F)c2cccc(C)c21` [Example 103, 2-[4-methyl-3-[2-methyl-6-(3-methyl-1H-pyrazolo[3,4-c]pyridin-4-yl)-3-pyridyl]-2-oxo-benzimidazol-1-yl]-N-(2,2,2-trifluoroethyl)acetamide] were 10 to 100 nM and “D (pIC50≤6)”.
For `Cc1nc(-c2cncc3[nH]nc(C)c23)cnc1-n1c(=O)n(CC(=O)NCC(F)(F)F)c2cccc(C)c21` [Example 104, 2-[4-methyl-3-[3-methyl-5-(3-methyl-1H-pyrazolo[3,4-c]pyridin-4-yl)pyrazin-2-yl]-2-oxo-benzimidazol-1-yl]-N-(2,2,2-trifluoroethyl)acetamide], the “DDR1 pIC50” value in assay [1] is recorded as “D (pIC50≤6)”. The “DDR2 pIC50” value in assay [2] is on record as “D (pIC50≤6)”.
As for `Cc1nc(-n2c(=O)n(CC(=O)NCC(F)(F)F)c3cccc(C)c32)cnc1-c1cncc2[nH]nc(C)c12` [Example 105, 2-[4-methyl-3-[6-methyl-5-(3-methyl-1H-pyrazolo[3,4-c]pyridin-4-yl)pyrazin-2-yl]-2-oxo-benzimidazol-1-yl]-N-(2,2,2-trifluoroethyl)acetamide], the IC50 in assay [1] was 10 to 100 nM; in assay [2], 100 to 1000 nM.
Taken in the same sequence, the figures for `Cc1cc(-c2cncc3c2cnn3C)ncc1-n1c(=O)n(CC(=O)N[C@@H](C)C(F)(F)F)c2cccc(C)c21` [Example 106] were 10 to 100 nM and 100 to 1000 nM.
On to `Cc1cc(-c2cncc3c2cnn3C)ncc1-n1c(=O)n(CC(=O)N[C@H](C)C(F)(F)F)c2cccc(C)c21` [Example 107], for which the IC50 in assay [1] was 100 to 1000 nM. Besides, in assay [2], the “DDR2 pIC50” value was “D (pIC50≤6)”.
Taken in the same sequence, the figures for `Cc1cc(-c2cncc3c2c(C)nn3C)ncc1-n1c(=O)n(CC(=O)NCC(F)(F)F)c2cccc(C)c21` [Example 108] were 100 to 1000 nM and “D (pIC50≤6)”.
As for `Cc1ncc2c(cnn2C)c1-c1ccc(-n2c(=O)n(CC(=O)NCC(F)(F)F)c3cccc(C)c32)cn1` [Example 109], in assay [1], the “DDR1 pIC50” value is “D (pIC50≤6)”. Besides, the “DDR2 pIC50” value in assay [2] was “D (pIC50≤6)”.
Consider `Cc1cc(-c2cncc3c2cnn3C)cnc1-n1c(=O)n(CC(=O)NCC(F)(F)F)c2cccc(C)c21` [Example 110], for which, in assay [1], the IC50 was 10 to 100 nM. In addition, the “DDR2 pIC50” value in assay [2] is “D (pIC50≤6)”.
Taken in the same sequence, the figures for `Cc1cc(-c2cncc3c2cnn3C)cnc1-n1c(=O)n(CC(=O)N[C@H](C)C(F)(F)F)c2cccc(C)c21` [Example 111] were 100 to 1000 nM and “D (pIC50≤6)”.
In the case of `Cc1nc(-c2cncc3c2cnn3C)ccc1-n1c(=O)n(CC(=O)N[C@H](C)C(F)(F)F)c2cccc(C)c21` [Example 112], the values for the IC50 in assay [1] and in assay [2] were 10 to 100 nM and 100 to 1000 nM, respectively.
Taken in the same sequence, the figures for `Cc1nc(-c2cncc3c2cnn3C)ccc1-n1c(=O)n(CC(=O)N[C@@H](C)C(F)(F)F)c2cccc(C)c21` [Example 113] were 10 to 100 nM and 100 to 1000 nM.
Taken in the same sequence, the figures for `Cc1nc(-c2cncc3c2cnn3C)cnc1-n1c(=O)n(CC(=O)N[C@@H](C)C(F)(F)F)c2cccc(C)c21` [Example 115] were 10 to 100 nM and 10 to 100 nM.
